Like-named read-outs stand apart in the source and are kept apart here.
How the values were obtained:
Assay type in all cases: cell-based
[1] = target: T1, STAT3 (Homo sapiens, UniProt P40763); assay: HiBiT assay, STAT3 degradation in STAT3-HiBiT KI HeLa cells; details: read-out: STAT3 Degradation (HeLa 24 h HiBit) DC50
T1 construct: This cell line is a clone created by using CRISPR-Cas9 to fuse HiBiT to the 3′ end of STAT3 in HeLa cells; host or cells: STAT3-HiBiT KI HeLa cell line (CRISPR-Cas9 knock-in clone)
T1 sequence (P40763 whole entry): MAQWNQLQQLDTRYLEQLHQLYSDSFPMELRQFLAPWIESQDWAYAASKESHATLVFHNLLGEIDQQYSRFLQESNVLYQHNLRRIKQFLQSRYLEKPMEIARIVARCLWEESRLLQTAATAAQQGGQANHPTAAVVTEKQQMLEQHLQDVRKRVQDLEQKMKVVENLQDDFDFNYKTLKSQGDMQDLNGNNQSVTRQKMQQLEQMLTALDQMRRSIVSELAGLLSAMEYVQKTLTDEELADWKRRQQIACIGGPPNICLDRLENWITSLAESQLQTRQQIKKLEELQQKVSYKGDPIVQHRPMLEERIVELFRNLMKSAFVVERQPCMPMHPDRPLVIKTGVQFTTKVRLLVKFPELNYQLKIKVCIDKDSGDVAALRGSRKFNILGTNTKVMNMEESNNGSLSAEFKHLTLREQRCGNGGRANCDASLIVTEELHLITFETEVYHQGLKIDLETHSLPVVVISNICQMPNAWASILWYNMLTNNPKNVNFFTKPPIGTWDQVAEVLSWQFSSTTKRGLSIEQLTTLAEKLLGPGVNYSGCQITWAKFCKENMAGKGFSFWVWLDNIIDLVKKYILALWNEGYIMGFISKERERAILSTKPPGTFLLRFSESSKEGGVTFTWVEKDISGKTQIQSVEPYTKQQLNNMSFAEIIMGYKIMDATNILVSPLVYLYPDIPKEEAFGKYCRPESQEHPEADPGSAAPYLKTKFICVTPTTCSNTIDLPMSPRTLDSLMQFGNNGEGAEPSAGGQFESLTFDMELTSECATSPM
Method in brief: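 HeLa cells with CRISPR knock-in of HiBiT at the STAT3 C-terminus, 20000 cells/well, treated with serial compound dilutions for 24 h at 37 °C, 5% CO2. Remaining STAT3 read by Nano-Glo HiBiT lytic luminescence versus untreated cells; IC50 from four-parameter nonlinear fit of triplicate means.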

[2] = system: SU-DHL-1 cells; assay: CellTiter-Glo 2.0 cell viability assay, SU-DHL-1; details: 4 days
Method in brief: (§1)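 1000 cells per well exposed to serially diluted compounds for 4 days at 37 °C, 5% CO2. Viability measured by CellTiter-Glo 2.0 luminescence versus untreated cells; IC50 from four-parameter nonlinear fit of triplicate means.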

[3] = system: SUP-M2 cells; assay: CellTiter-Glo 2.0 cell viability assay, SUP-M2; details: 4 days
Method in brief: as §1

Compound	DC50 ([1]; 24 h) [nM]	IC50 ([2]; Homo sapiens, 96 h) [nM]	IC50 ([3]; SUP-M2, 96 h) [nM]	IC50 [2] [nM]	IC50 [3] [nM]	DC50 [1] [nM]
Cc1ncsc1-c1ccc([C@H](C)NC(=O)[C@@H]2C[C@@H](O)CN2C(=O)[C@@H](n2cc(CC(=O)N3CC[C@H]4CC[C@@H](C(=O)N[C@@H](CCC(N)=O)C(=O)NC(c5ccccc5)c5ccccc5)N4C(=O)[C@@H](NC(=O)c4cc5cc(C(=O)P(=O)(O)O)ccc5[nH]4)C3)nn2)C(C)(C)C)cc1 [Compound 54, (2-(((5S,8S,10aR)-8-(((S)-5-amino-1-(benzhydrylamino)-1,5-dioxopentan-2-yl)carbamoyl)-3-(2-(1-((S)-1-((2S,4R)-4-hydroxy-2-(((S)-1-(4-(4-methylthiazol-5-yl)phenyl)ethyl)carbamoyl)pyrrolidin-1-yl)-3,3-dimethyl-1-oxobutan-2-yl)-1H-1,2,3-triazol-4-yl)acetyl)-6-oxodecahydropyrrolo[1,2-a][1,5]diazocin-5-yl)carbamoyl)-1H-indole-5-carbonyl)phosphonic acid]	> 1000	> 1000	> 1000			
Cc1ncsc1-c1ccc([C@H](C)NC(=O)[C@@H]2C[C@@H](O)CN2C(=O)[C@@H](n2cc(CCC(=O)N3CC[C@H]4CC[C@@H](C(=O)N[C@@H](CCC(N)=O)C(=O)NC(c5ccccc5)c5ccccc5)N4C(=O)[C@@H](NC(=O)c4cc5cc(C(=O)P(=O)(O)O)ccc5[nH]4)C3)nn2)C(C)(C)C)cc1 [Compound 55, (2-(((5S,8S,10aR)-8-(((S)-5-amino-1-(benzhydrylamino)-1,5-dioxopentan-2-yl)carbamoyl)-3-(3-(1-((S)-1-((2S,4R)-4-hydroxy-2-(((S)-1-(4-(4-methylthiazol-5-yl)phenyl)ethyl)carbamoyl)pyrrolidin-1-yl)-3,3-dimethyl-1-oxobutan-2-yl)-1H-1,2,3-triazol-4-yl)propanoyl)-6-oxodecahydropyrrolo[1,2-a][1,5]diazocin-5-yl)carbamoyl)-1H-indole-5-carbonyl)phosphonic acid]	> 1000	> 1000	> 1000			
Cc1ncsc1-c1ccc([C@H](C)NC(=O)[C@@H]2C[C@@H](O)CN2C(=O)[C@@H](n2cc(CCCC(=O)N3CC[C@H]4CC[C@@H](C(=O)N[C@@H](CCC(N)=O)C(=O)NC(c5ccccc5)c5ccccc5)N4C(=O)[C@@H](NC(=O)c4cc5cc(C(=O)P(=O)(O)O)ccc5[nH]4)C3)nn2)C(C)(C)C)cc1 [Compound 56, (2-(((5S,8S,10aR)-8-(((S)-5-amino-1-(benzhydrylamino)-1,5-dioxopentan-2-yl)carbamoyl)-3-(4-(1-((S)-1-((2S,4R)-4-hydroxy-2-(((S)-1-(4-(4-methylthiazol-5-yl)phenyl)ethyl)carbamoyl)pyrrolidin-1-yl)-3,3-dimethyl-1-oxobutan-2-yl)-1H-1,2,3-triazol-4-yl)butanoyl)-6-oxodecahydropyrrolo[1,2-a][1,5]diazocin-5-yl)carbamoyl)-1H-indole-5-carbonyl)phosphonic acid]	> 1000	100 to 1000	100 to 1000			
Cc1ncsc1-c1ccc([C@H](C)NC(=O)[C@@H]2C[C@@H](O)CN2C(=O)[C@@H](n2cc(CCCCC(=O)N3CC[C@H]4CC[C@@H](C(=O)N[C@@H](CCC(N)=O)C(=O)NC(c5ccccc5)c5ccccc5)N4C(=O)[C@@H](NC(=O)c4cc5cc(C(=O)P(=O)(O)O)ccc5[nH]4)C3)nn2)C(C)(C)C)cc1 [Compound 57, (2-(((5S,8S,10aR)-8-(((S)-5-amino-1-(benzhydrylamino)-1,5-dioxopentan-2-yl)carbamoyl)-3-(5-(1-((S)-1-((2S,4R)-4-hydroxy-2-(((S)-1-(4-(4-methylthiazol-5-yl)phenyl)ethyl)carbamoyl)pyrrolidin-1-yl)-3,3-dimethyl-1-oxobutan-2-yl)-1H-1,2,3-triazol-4-yl)pentanoyl)-6-oxodecahydropyrrolo[1,2-a][1,5]diazocin-5-yl)carbamoyl)-1H-indole-5-carbonyl)phosphonic acid]	100 to 1000			100 to 1000	100 to 1000	
Cc1ncsc1-c1ccc([C@H](C)NC(=O)[C@@H]2C[C@@H](O)CN2C(=O)[C@@H](n2cc(CCCCCC(=O)N3CC[C@H]4CC[C@@H](C(=O)N[C@@H](CCC(N)=O)C(=O)NC(c5ccccc5)c5ccccc5)N4C(=O)[C@@H](NC(=O)c4cc5cc(C(=O)P(=O)(O)O)ccc5[nH]4)C3)nn2)C(C)(C)C)cc1 [Compound 58, (2-(((5S,8S,10aR)-8-(((S)-5-amino-1-(benzhydrylamino)-1,5-dioxopentan-2-yl)carbamoyl)-3-(6-(1-((S)-1-((2S,4R)-4-hydroxy-2-(((S)-1-(4-(4-methylthiazol-5-yl)phenyl)ethyl)carbamoyl)pyrrolidin-1-yl)-3,3-dimethyl-1-oxobutan-2-yl)-1H-1,2,3-triazol-4-yl)hexanoyl)-6-oxodecahydropyrrolo[1,2-a][1,5]diazocin-5-yl)carbamoyl)-1H-indole-5-carbonyl)phosphonic acid]	> 1000	> 1000	100 to 1000			
Cc1ncsc1-c1ccc([C@H](C)NC(=O)[C@@H]2C[C@@H](O)CN2C(=O)[C@@H](n2cc(CCCCCCC(=O)N3CC[C@H]4CC[C@@H](C(=O)N[C@@H](CCC(N)=O)C(=O)NC(c5ccccc5)c5ccccc5)N4C(=O)[C@@H](NC(=O)c4cc5cc(C(=O)P(=O)(O)O)ccc5[nH]4)C3)nn2)C(C)(C)C)cc1 [Compound 59, (2-(((5S,8S,10aR)-8-(((S)-5-amino-1-(benzhydrylamino)-1,5-dioxopentan-2-yl)carbamoyl)-3-(7-(1-((S)-1-((2S,4R)-4-hydroxy-2-(((S)-1-(4-(4-methylthiazol-5-yl)phenyl)ethyl)carbamoyl)pyrrolidin-1-yl)-3,3-dimethyl-1-oxobutan-2-yl)-1H-1,2,3-triazol-4-yl)heptanoyl)-6-oxodecahydropyrrolo[1,2-a][1,5]diazocin-5-yl)carbamoyl)-1H-indole-5-carbonyl)phosphonic acid]		> 1000	> 1000			> 1000
Cc1ncsc1-c1ccc([C@H](C)NC(=O)[C@@H]2C[C@@H](O)CN2C(=O)[C@@H](n2cc(CCCCCCCC(=O)N3CC[C@H]4CC[C@@H](C(=O)N[C@@H](CCC(N)=O)C(=O)NC(c5ccccc5)c5ccccc5)N4C(=O)[C@@H](NC(=O)c4cc5cc(C(=O)P(=O)(O)O)ccc5[nH]4)C3)nn2)C(C)(C)C)cc1 [Compound 60, (2-(((5S,8S,10aR)-8-(((S)-5-amino-1-(benzhydrylamino)-1,5-dioxopentan-2-yl)carbamoyl)-3-(8-(1-((S)-1-((2S,4R)-4-hydroxy-2-(((S)-1-(4-(4-methylthiazol-5-yl)phenyl)ethyl)carbamoyl)pyrrolidin-1-yl)-3,3-dimethyl-1-oxobutan-2-yl)-1H-1,2,3-triazol-4-yl)octanoyl)-6-oxodecahydropyrrolo[1,2-a][1,5]diazocin-5-yl)carbamoyl)-1H-indole-5-carbonyl)phosphonic acid]	> 1000	> 1000	> 1000			

From patent US20260226086A1, “COMPOUNDS AND COMPOSITIONS AS STAT3 DEGRADERS AND USES THEREOF” (REGENTS OF THE UNIVERSITY OF MICHIGAN, priority 2023, published 2026)
